Columns and labels:
Experiment in all cases: PPAR activation in vitro, mammalian-one-hybrid (M1H) GAL4-PPAR-LBD luciferase reporter assay
Assay type in all cases: cell-based
PPARα = biological target: T1, PPARα (Homo sapiens, UniProt Q07869); settings: for PPARα Efficacy: HEK293 cells, efficacy of positive control (GW7647) set to 100%; for EC50: transiently transfected HEK293 cells, compound incubation 16-20 h, six concentrations in duplicate
T1 construct: expressed in transfected cells; host or cells: HEK293
T1 sequence (Q07869 239-466 limits assumed): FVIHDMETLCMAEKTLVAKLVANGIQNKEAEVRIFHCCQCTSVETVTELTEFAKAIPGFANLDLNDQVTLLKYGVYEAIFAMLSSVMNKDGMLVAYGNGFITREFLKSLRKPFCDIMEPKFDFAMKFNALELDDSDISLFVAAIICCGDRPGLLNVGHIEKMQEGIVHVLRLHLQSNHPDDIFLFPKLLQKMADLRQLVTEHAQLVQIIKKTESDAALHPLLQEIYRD
Method: (§1) The assays were carried out in vitro using mammalian-one-hybrid assays (M1H) comprising GAL4-DNA binding domain-PPAR-LBD fusion constructs in conjunction with 5×GAL4-sites driven Photinus pyralis luciferase reporter constructs in transiently transfected HEK293 cells.
(§2) The cells were transfected 4-6 h and grown overnight before compounds were added. Compound incubation was 16-20 h.
(§3) Renilla reniformis luciferase, driven by a constitutive promoter, was included as internal control to improve experimental accuracy.
(§4) The compounds (A-C) and a positive control were tested at six different concentrations in duplicate. The positive controls were GW7647 (PPARα), GW501516 (PPARδ) and rosiglitazone (PPARγ). The efficacy of the controls were set to 100%.

PPARγ = biological target: T2, PPARγ (Homo sapiens, UniProt P37231); settings: for PPARγ Efficacy: HEK293 cells, efficacy of positive control (rosiglitazone) set to 100%; for EC50: transiently transfected HEK293 cells, compound incubation 16-20 h, six concentrations in duplicate
T2 construct: expressed in transfected cells; host or cells: HEK293
T2 sequence (P37231 238-503 limits assumed): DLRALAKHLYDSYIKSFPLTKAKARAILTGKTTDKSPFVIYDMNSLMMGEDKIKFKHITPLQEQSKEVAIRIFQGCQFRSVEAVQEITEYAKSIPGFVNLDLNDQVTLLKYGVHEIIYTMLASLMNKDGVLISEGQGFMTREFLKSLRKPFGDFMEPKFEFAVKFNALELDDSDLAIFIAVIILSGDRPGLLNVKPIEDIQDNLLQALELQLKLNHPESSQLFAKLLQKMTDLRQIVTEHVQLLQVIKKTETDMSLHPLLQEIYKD
Method: as §1, §2, §3, §4

PPARδ = biological target: T3, PPARδ (Homo sapiens, UniProt Q03181); settings: for PPARδ Efficacy: HEK293 cells, efficacy of positive control (GW501516) set to 100%; for PPARδ EC50: transiently transfected HEK293 cells, compound incubation 16-20 h, six concentrations in duplicate
T3 construct: expressed in transfected cells; host or cells: HEK293
T3 sequence (Q03181 211-439 limits assumed): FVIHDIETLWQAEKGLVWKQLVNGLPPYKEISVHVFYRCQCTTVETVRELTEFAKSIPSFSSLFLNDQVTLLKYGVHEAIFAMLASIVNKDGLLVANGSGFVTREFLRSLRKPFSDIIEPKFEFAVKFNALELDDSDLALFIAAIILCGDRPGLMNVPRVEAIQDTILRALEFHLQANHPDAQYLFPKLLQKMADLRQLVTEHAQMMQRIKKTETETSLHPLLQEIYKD
Method: as §1, §2, §3, §4

Row | SMILES | PPARα Efficacy (PPARα) | EC50 (PPARα) | PPARγ Efficacy (PPARγ) | EC50 (PPARγ) | PPARδ Efficacy (PPARδ) | PPARδ EC50 (PPARδ)
1 | CC/C=C\C/C=C\C/C=C\C/C=C\C/C=C\CCCCO[C@H](CC)C(=O)O [C] | 54% | 167 nM | 25% | 515 nM | inactive | inactive
2 | CC/C=C\C/C=C\C/C=C\C/C=C\C/C=C\CCCCOC(CC)C(=O)O (stereo not drawn) [A] | 82% | 307 nM | 22% | 806 nM | inactive | inactive
3 | CC/C=C\C/C=C\C/C=C\C/C=C\C/C=C\CCCCO[C@@H](CC)C(=O)O [B] | 86% | 405 nM | 27% | 644 nM | inactive | inactive

— patent US8735436B2, “Polyunsaturated fatty acids for the treatment of diseases related to cardiovascular, metabolic and inflammatory disease areas” (Pronova Biopharma Norge AS, priority 2009, dated 2014)
